Results on 15 compounds are retold here after US20230027620A1, “PENTAPEPTIDE AND METHODS OF USE THEREOF” (THE BOARD OF TRUSTEES OF THE UNIVERSITY OF ILLINOIS, priority 2019, published 2023).

Entries after “also recorded” stand apart in the source; their conditions may differ. Starred links: 1 amine or outer side, 2 acyl side, 3 side chain; linkers in the order of their positions; H or OH if unused. Non-standard residues stand in square brackets, D forms with d. No end group written: not given here. (CH2)6 = -(CH2)6- hydrocarbon linking residues between repeats, C(CCC[*:2])CC[*:1]

The test system of the first assay is epithelial cell migration. The assay can be described thus: In vitro scratch assay, truncation and scrambled peptide series (FIG. 1; cell line not given). The format is cell-based. As to conditions: 80 μM; FIG. 1; vs untreated control. The procedure:
Peptides were tested for efficacy in accelerating scratch closure rates. Negative controls included untreated and multiple scrambled peptide (SP) controls. All peptides were tested at 80 μM concentration. All experiments were performed in triplicate with three technical replicates for each experiment. Statistical significance was determined by one-way ANOYA with Dunnett's post-hoc test. *p<0.05; **p<0.01; ***p<0.001. Relative closure=(% closure of treated sample)/(% closure of Untreated control).
In Vitro Scratch Assay. HCE, HCLE, HELA and MCF-7 cells were cultured in a 24-well plate at 2.5×10^5 (cells/well) seeding density, and were grown to confluence on a 24-well plate. Subsequently, a straight-line scratch mark was made with a sterile P200 pipette tip. The cells were then washed twice with phosphate-buffered saline (PBS) to remove cellular debris. Wounded areas were then treated with the peptides provided in Table 5 at various concentrations in standard medium with reduced serum conditions (0.5% FBS in MEM medium (HCE), growth factor-free K-SFM media (HCLE), 1% FBS in DMEM medium (HeLa) and 0.5% FBS in RPMI 1640 medium (MCF-7)). Scratches were photographed microscopically at 4× magnification (Image Express Micro, Molecular Devices, San Jose, Calif.) every hour over the course of the experiment. The wound area at each time-point was measured using Image J software (Image J 1.47v, NIH, Thornwood, Bethesda, Md.). Relative wound closure was calculated by dividing the closure of the treated wound by that of the untreated wound. For all the experiments including truncated histatin-5, a final concentration of 80 μM was used. PD98059 (Calbiochem, San Diego, Calif.) at final concentration of 50 μM was used as a specific inhibitor of MEK. PD98059 was added to cell cultures at the same time as histatin peptides.
To identify the residues of Hst5 required for epithelial cell migration, serial truncation experiments were performed, progressively deleting residues in Hst5. […] All peptides were tested at 80 μM. […] Thus, the SHRGY (SEQ ID NO:2) sequence is necessary and sufficient to promote epithelial migration rates in in vitro scratch assays.
As to RYSGH [SP3], the “scratch (wound) closure rates, relative closure” value (shortened to “scratch … relative closure”) is listed as “did not significantly increase wound closure rates”.

With TNQQK [SP5], the “scratch … relative closure” value was “no significant improvement in the wound closure rates”.

On to DSHAKRHHGYKRKFHEKHHSHRG [Hst5(1-23)], for which the “scratch … relative closure” value was “no significant increase in wound closure rates”.

On to DSHAKRHHGYKRKF [Hst5(1-14)], for which the “scratch … relative closure” value is on record as “no significant increase in wound closure rates”.

Turning to HSHKEGHHYKRFKRKHHADSHRGY [SP2], the “scratch … relative closure” value was “significant increases in scratch closure rates”.

Consider “c-SHRGY: cyclized SHRGY peptide, prepared using a linker/spacer composed of 6-(Fmoc-amino)caproic acid, 6-(Fmoc-amino)hexanoic acid (cyclo(SHRGY); not fully specified (C-terminus))”, for which the “scratch … relative closure” value is “significant increases in scratch closure rates”.

As to “SHRGY-(CH2)6-SHRGY-(CH2)6-SHRGY-(CH2)6-SHRGY (SHRGY[(CH2)6]SHRGY[(CH2)6]SHRGY[(CH2)6]SHRGY) [multimer of SHRGY composed of 4 repeating units]”, the “scratch … relative closure” value is given as “significant increases in scratch closure rates”.

For the compound “DSHAKRHIHGYKRKFHEKHHSH (DSHAKRHHGYKRKFHEKHHSH) [Hst5(1-21)]”, the “scratch … relative closure” value is recorded as “no significant increase in wound closure rates”.

Take RYHGS [SP4]: the “scratch … relative closure” value is reported as “did not significantly increase wound closure rates”.

DSHAKRHHGYKRKFHEKHHSHR [Hst5(1-22)]: the “scratch … relative closure” value is listed as “no significant increase in wound closure rates”.

For the compound RHHGYKRKFHEKHHSHRGY [Hst5(5-24)], the “scratch … relative closure” value was “significant increases in scratch closure rates”.

Turning to DSHAKRHHGYKRKFHEKHH [Hst5(1-19)], the “scratch … relative closure” value is on record as “no significant increase in wound closure rates”.

The same assay, now with this note: PD98059 50 μM added at the same time as Hst5.
Turning to `COc1cccc(-c2cc(=O)c3ccccc3o2)c1N` [PD98059], the “effect of MEK inhibitor co-treatment on Hst5-promoted wound closure” value is given as “eliminated the effects of Hst5 on promoting wound closure”.

Still in this assay, the particulars now being: summary statement: immortalized human corneal epithelial cells, immortalized human corneal limbal epithelial cells, HeLa human cells, mouse corneal wounding models.
SHDGY [pentapeptide]: the epithelial migration result is “significantly enhance epithelial migration”.

The next assay concerns p-ERK1/2. The assay can be described thus: Immunofluorescence imaging of p-ERK1/2 in scratched HCE monolayer. The format is cell-based, Human. As to conditions: 80 μM, 45 minutes. The procedure:
Immunofluorescence Imaging. HCE cells were seeded in 8-well chamber slide at 9×10^4 (cells/well) seeding density, and allowed to incubate to form a confluent monolayer. Subsequently, a straight-line scratch mark was made with a sterile P10 pipette tip. The cells were then washed with media to remove cellular debris. Wounded areas were subsequently left untreated or treated with Hst5, SP1 or SP2 at 80 μM concentrations in MEM media with 0.5% FBS for 45 minutes. Cells were then fixed with 4% paraformaldehyde for 30 minutes and permeabilized with 0.1% Triton X-100 for 5 minutes. After washing with PBS, cells were incubated at room temperature for 30 minutes with 5% bovine serum albumin (BSA) and 5% normal goat serum in PBS. Cells were subsequently incubated with primary antibodies diluted in 1% BSA against p-ERK1/2 (1:200) (Cell Signaling, Danver, Mass.) at 4° C. for 16 hours. After three washings with PBS, cells were incubated with fluorescein isothiocyanate-conjugated sheep anti-rabbit IgG antibody (BD Biosciences, San Jose, Calif.) (1:500) diluted in 1% BSA at room temperature for 60 minutes. After extensive washing with PBS, the cells were then stained with 4′,6-diamidino-2-phenylindole (DAPI; (Roche, Mannheim, GE) for 2 minutes for nuclear staining. The cells were mounted in Fluoro gel with Tris buffer (Electron Microscopy Sciences, Hattfield, Pa.) and observed under a confocal microscope (Zeiss LSM 710 Confocal Microscope, Oberkochen, Germany) using a 10× objective.
The level of activation/phosphorylation of ERK with and without wounding and with and without Hst5 application were investigated to determine whether the cellular signaling pathways underpinning the pro-migratory effects of Hst5 were similar to those of Hst1 in other epithelial cell types. Wounding causes an increased in phosphorylated form of ERK1/2 (p-ERK1/2). Immunolocalization was used to determine whether Hst5 application to a scratched sheet of epithelium would affect pERK1/2 levels.
As to HSHKEGHHYKRFKRKHHADSHRGY [SP2], the “pERK1/2 immunolocalization / signal intensity” value is “increased pERK1/2 levels to a comparable intensity to Hst5; also recorded: elevated immunolocalization of pERK1/2”.

Turning to YHGHRHFRKHKKHKEAHSYDRGSH [SP1], the “pERK1/2 immunolocalization / signal intensity” value is given as “did not elicit the same increase in pERK1/2 immunolocalization”.

The next assay deals with corneal epithelial wound in C57BLl6J mice. Briefly: Murine corneal epithelial injury (wound healing) model. It is filed as in vivo. As to conditions: applied topically to mice injured using a standardized wounding method; summary statement. On the procedure: Wounded areas were treated with Hst5, SHRGY (SEQ ID NO:2) or SP1 peptides (n=7 for each group), each tested at 80 μM concentration. Wound areas at multiple time points were measured using Image J software. […] Statistical significance was determined by a two-way ANOVA with Bonferroni post-hoc test. **P<0.01, ***P<0.001. % Wound area=(Wound area at time X/Wound area at time 0)×100.
Wound Healing Assay. Corneal wounding experiments in mice were conducted in compliance with the Association for Research in Vision and Ophthalmology (ARVO) Statement for the Use of Animals in Ophthalmic and Vision Research. The protocol was approved by the Animal Care & Use Committee of the University of Illinois at Chicago. Twelve-to-nineteen week old C57BLl6J (Jackson Laboratory, Bar Harbor, Me.) mice were anesthetized with intraperitoneal injection of ketamine (100 mg/kg) and xylazine (5 mg/kg). After applying two drops of topical 0.5% proparacaine, a 2.0-mm area of the central epithelium was demarcated using 2-mm disposable biopsy punch and removed by an AlgerBrush II (The Alger Company, Lago Vista, Tex.). In the treatment (n=7) or the control (n=7) group, Histatin=5 (80 μM), SHRGY peptide (SEQ ID NO:2; 80 μM), or SP1 (80 μM) was applied to the cornea three times a day. At 0, 18 and 24 hours, the corneas were stained with fluorescein (FUL-GLO® Fluorescein Sodium ophthalmic strips, Akorn, Lake forest, Ill.) and photographed using a NIKON FS-2 photo-slit lamp with a NIKON D200 camera (Melville, N.Y.). Wound sizes were compared with the baseline for each mouse and the percentages of wound closure was measured using Image J software.
For immunofluorescence, excised whole mouse eye was snap frozen in optimal cutting temperature compound (OCT; (Fisher Healthcare, Galderma, Calif.). The frozen tissues were cut into 10 μm cryosections (ThermoScientific NX50 Cryomicrotome, Waltham, Mass.) and subsequently were mounted on Superfrost plus slides (Thermofisher, Waltham, Mass.). Slides were fixed for 20 minutes in methanol, washed several times with PBS, stained with DAPI for 2 minutes, and further washed with PBS and deionized water. The slides were then mounted in Fluoro gel with Tris buffer (Electron Microscopy Sciences, Hattfield, Pa.) and observed under a confocal microscope (Zeiss LSM 710 Confocal Microscope, Oberkochen, Germany) using a 10× objective.
Thus, Hst5 and SHRGY (SEQ ID NO:2)-containing peptides can enhance wound healing in a well-vetted model of murine corneal epithelial injury.
“SHRGY-(CH2)6-SHRGY-(CH2)6-SHRGY-(CH2)6-SHRGY (SHRGY[(CH2)6]SHRGY[(CH2)6]SHRGY[(CH2)6]SHRGY) [multimer of SHRGY composed of 4 repeating units]”: the corneal healing entry is recorded as “significantly improve corneal healing”.
